According to PubChem BioAssay (NCI):
Values joined by “and” are separate entries in the source; they are usually repeats but may differ in a detail not shown here. Identical values can stand only once.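 Compound exposure: 48 hours, 5 concentrations, 96-well plates. GI50: concentration for 50% inhibition of growth. TGI marks complete inhibition of growth.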

What was measured:
Assay in all cases: NCI-60 cell line screen, 48 h
[1] = test system: 786-0 renal
[2] = test system: CCRF-CEM leukemia
[3] = test system: NCI-H226 lung
[4] = test system: NCI-H460 lung
[5] = test system: NCI/ADR-RES ovarian
[6] = test system: OVCAR-3 ovarian
[7] = test system: SNB-19 CNS
[8] = test system: SW-620 colon
[9] = test system: UACC-257 melanoma
[10] = test system: DU-145 prostate

Compound	GI50 [1]	TGI [1]	GI50 [2]	TGI [2]	GI50 [3]	TGI [3]	GI50 [4]	TGI [4]	GI50 [5]	TGI [5]	GI50 [6]	TGI [6]	GI50 [7]	TGI [7]	GI50 [8]	TGI [8]	GI50 [9]	TGI [9]	TGI [10]	GI50 [10]
Cc1cn2c(/C=N/N=C(N)N)c(-c3cccs3)nc2s1	2.42 µM	6.06 µM	1.34 µM	3.24 µM	4.18 µM	18.9 µM	5.46 µM	26.7 µM	15.3 µM	28.7 µM	1.91 µM	5.5 µM	11.9 µM	35.8 µM	1.71 µM	4.02 µM	2.54 µM	6.14 µM	–	–
Cc1c(C(=O)/C=C/c2ccc(N(C)C)cc2)c(=O)n(-c2ccccc2)n1C	–	> 100 µM	–	> 100 µM	–	> 100 µM	–	> 100 µM	–	–	–	> 100 µM	–	> 100 µM	–	> 100 µM	–	> 100 µM	–	–
C[N+](C)(C)CC(=O)N/N=C(\C(=O)NC1=C(Cl)C(=O)c2ccccc2C1=O)C(C#N)c1csc(-c2ccc([N+](=O)[O-])cc2)n1 (stereo unspecified)	–	> 100 µM	–	> 100 µM	–	> 100 µM	–	> 100 µM	–	–	–	> 100 µM	–	> 100 µM	–	> 100 µM	–	> 100 µM	–	–
CCc1cccc(CC)c1NC(=O)C1=C(C)NC(C)=C(C(=O)Nc2c(CC)cccc2CC)C1c1ccc([N+](=O)[O-])cc1	–	29.2 µM	–	45.8 µM	–	> 100 µM	–	45 µM	–	–	–	96 µM	–	> 100 µM	–	59.1 µM	–	53.1 µM	–	–
O=c1c2cccc3cccc(c4n1CCN=4)c32	–	> 100 µM	–	> 100 µM	–	> 100 µM	–	> 100 µM	–	–	–	> 100 µM	–	–	–	> 100 µM	–	> 100 µM	–	–
COc1ccc(OC)c(-c2cc(-c3ccc(Cl)cc3)nn2-c2ccc(S(=O)(=O)NC(C)=O)cc2)c1	3.03 µM	12.1 µM	20 µM	73.5 µM	4.07 µM	23.1 µM	29.3 µM	> 100 µM	–	–	25.4 µM	64.7 µM	10.6 µM	28.7 µM	5.39 µM	22.2 µM	16.8 µM	34.2 µM	–	–
SCCSCCCSCCS	–	> 100 µM	–	41.5 µM	–	–	–	> 100 µM	–	> 100 µM	–	> 100 µM	–	> 100 µM	–	> 100 µM	–	> 100 µM	> 100 µM	–
CO[C@H](C(=O)[C@@H](O)[C@@H](C)O)[C@@H]1Cc2cc3cc(OC4CC(OC5CC(O)C(O)C(C)O5)C(O)C(C)O4)c(C)c(O)c3c(O)c2C(=O)[C@H]1OC1CC(OC2CC(OC3CC(C)(O)C(O)C(C)O3)C(O)C(C)O2)C(O)C(C)O1 (stereo partly specified)	0.0255 µg/mL and 0.0152 µg/mL and 713 nM	–	0.0386 µg/mL and 0.0314 µg/mL	–	0.0179 µg/mL and 0.0115 µg/mL	–	0.0183 µg/mL and 0.015 µg/mL	–	23 µg/mL and 0.633 µg/mL	–	0.0235 µg/mL and 0.0222 µg/mL	–	0.0238 µg/mL and 0.0179 µg/mL	–	0.0264 µg/mL and 0.0232 µg/mL	–	0.0259 µg/mL and 0.0361 µg/mL	–	–	–
COc1cc(CNc2ccccc2C(=O)N2CCN(C(=O)c3cc(-c4cc(OC)c(OC)c(OC)c4)n4nc(-c5ccccc5)cc4n3)CC2)cc(OC)c1OC	4.49 µM	> 100 µM	–	–	4.44 µM	59.4 µM	3.32 µM	> 100 µM	1.95 µM	5.76 µM	2.69 µM	9.59 µM	6.73 µM	> 100 µM	3.67 µM	> 100 µM	4.97 µM	> 100 µM	> 100 µM	3.96 µM
COC(=O)C(Cc1nc2ccccc2[nH]c1=O)C(=O)C(=O)Nc1ccc([N+](=O)[O-])cc1[N+](=O)[O-] (stereo unspecified)	–	32 µM	–	51.9 µM	–	32.1 µM	–	49.2 µM	–	–	–	30.5 µM	–	> 100 µM	–	39.6 µM	–	36.9 µM	–	–
CCc1cc(CCC(=O)Nc2c(C)cccc2C)[nH]n1	–	> 100 µM	–	> 100 µM	–	> 100 µM	–	> 100 µM	–	–	–	> 100 µM	–	> 100 µM	–	> 100 µM	–	> 100 µM	–	–
O=c1c(Cl)c(Cl)c(=O)c2sc3cc(Cl)ccc3[nH]c1=2	–	> 100 µM	–	–	–	> 100 µM	–	> 100 µM	–	20.1 µM	–	30.7 µM	–	> 100 µM	–	52.1 µM	–	35.3 µM	> 100 µM	–
CCC(CNc1cc(OC)cc2cccnc12)NC1CCCCC1 (stereo unspecified)	24 µM	69.4 µM	–	–	86 µM	> 100 µM	16.8 µM	41 µM	35.3 µM	> 100 µM	17.3 µM	65.5 µM	89.7 µM	> 100 µM	19.4 µM	56.7 µM	41.1 µM	> 100 µM	> 100 µM	35.5 µM
CN(C)C=C1C(Cl)=C(C=O)CC(C=O)=C1Cl	–	24.5 µM	–	10.6 µM	–	–	–	39.7 µM	–	–	–	27.7 µM	–	27.3 µM	–	7.3 µM	–	30.8 µM	–	–
COc1ccc(C2SCC(=O)N2NC(=O)c2ccc(NC(C)=O)cc2)cc1 (stereo unspecified)	–	> 100 µM	–	–	–	> 100 µM	–	> 100 µM	–	> 100 µM	–	> 100 µM	–	> 100 µM	–	> 100 µM	–	> 100 µM	> 100 µM	–
Cc1cc(Cl)ccc1NC(=O)C(=O)C(C(=O)c1ccc2ccccc2c1)C1OC(=O)c2ccccc21 (stereo unspecified)	–	22.1 µM	–	22.2 µM	–	7.69 µM	–	60.8 µM	–	–	–	33.3 µM	–	18.3 µM	–	84.6 µM	–	47.8 µM	–	–
CCOC(=N)CC(=O)c1ccccc1	–	> 100 µM	–	> 100 µM	–	> 100 µM	–	–	–	–	–	> 100 µM	–	> 100 µM	–	> 100 µM	–	> 100 µM	–	–
CCCN(CCCC(NC(C)=O)C(=O)NCc1ccccc1)C(=O)NCCCl (stereo unspecified)	–	> 100 µM	–	> 100 µM	–	> 100 µM	–	> 100 µM	–	–	–	> 100 µM	–	> 100 µM	–	> 100 µM	–	> 100 µM	–	–
COc1cc(CNC2c3cc4c(cc3C(c3cc(OC)c(OC)c(OC)c3)[C@H]3C(=O)OCC23)OCO4)cc(OC)c1OC (stereo partly specified)	–	> 100 µM	–	40.9 µM	–	0.487 µM	–	–	–	–	–	> 100 µM	–	> 100 µM	–	> 100 µM	–	> 100 µM	–	–
Cc1cc(C)c(Cn2cnc3c(Cl)ncnc32)c(C)c1CCl	> 100 µM	> 100 µM	24.9 µM	95.2 µM	> 100 µM	> 100 µM	32.7 µM	> 100 µM	> 100 µM	> 100 µM	18.1 µM	53.9 µM	> 100 µM	> 100 µM	92.7 µM	> 100 µM	–	–	–	–
